Data: patent US4968686A, “Acyclic pyrrolo [2,3-d]pyrimidine analogs as antiviral agents” (The Regents of The University of Michigan, priority 1989, dated 1990)
Where two headings read alike, the source gives them in different places.

How the values were obtained:
[1] = Growth of KB cells (population doubling times); assay type: cell-based, human; settings: human, kb cells; 100 μM; read-out: reduction of KB cell growth rate
Method: (§1) Population doubling times and cell viability were measured in uninfected HFF and/or KB cells. Cells were planted in replicate 6-well plastic tissue culture dishes or in 25 cm^2 flasks as described above in part 1. Following an incubation period during which cells attached to the substrate, medium was decanted, the cell sheet rinsed once with HBS, and fresh medium added. The medium consisted of MEM(E) with 1.1 gm NaHCO3 /liter and 10% fetal bovine or calf serum plus appropriate log or half-log concentrations of drug. After additional periods of incubation from 1 to 72 hours at 37° C., cells were harvested by means of 0.05% trypsin plus 0.02% EDTA in a HEPES-buffered salt solution. Cells were enumerated using either a Coulter counter or a hemocytometer and viability determining using trypsan blue dye exclusion.
In more extensive cytotoxicity testing, the halogenated compounds were tested for effects on the growth of KB cells. Populations doubling times were calculated from the logarithmic portions of growth curves and were as follows: […]

[2] = Growth of HFF cells; assay type: cell-based, human; settings: human, hff cells; 100 μM; 70-hour incubation; read-out: reduction of number of HFF cells
Method: as §1
The effect of these compounds on the growth of human diploid fibroblasts (HFF cells) was less pronounced. During a 70-hour incubation, control cells underwent two doublings. […] A 100 μM concentration reduced the number of cells by less than 10%.

[3] = tested on: human PBLs; test: DNA synthesis in mitogen-stimulated human PBLs; assay type: cell-based; settings: pokeweed mitogen or concanavalin A; 0.1, 1, 10 and 100 μM
[4] = Drug toxicity control in uninfected mice; assay type: in vivo; settings: for mortality: mouse, in vivo, ip, read-out: Mortality Percent (Toxicity)

Compound: OCC(CO)OCn1cc(Br)c2c(NO)ncnc21 [UMJD 299, 4-hydroxylamino-5-bromo-7-[(1,3-dihydroxy-2-propoxy)methyl]pyrrolo[2,3-d]pyrimidine]
- inhibition at 100 µM [1]: > 50%

Compound: Nc1ncnc2c1c(Cl)cn2COCCO [UMJD 100, 4-Amino-5-chloro-7-(2-hydroxyethoxymethyl)pyrrolo[2,3-d]-pyrimidine]
- inhibition at 70 h, 100 µM [2]: < 10%
- effect on DNA synthesis in human PBLs [3]: did not affect DNA synthesis

Compound: Nc1ncnc2c1c(Br)cn2COC(CO)CO [UMJD 183, 4-amino-5-bromo-7-[(1,3-dihydroxy-2-propoxy)methyl]-pyrrolo[2,3-d]pyrimidine]
- Mortality Number (Toxicity) ([4]; 1.9 mg/kg, no virus): 0/15
- Mortality Number (Toxicity) ([4]; 5.6 mg/kg, no virus): 0/15
- MDD (Toxicity) ([4]; 16.7 mg/kg, no virus): 5.0 days
- Mortality Number (Toxicity) ([4]; 16.7 mg/kg, no virus): 1/15
- Mortality Number (Toxicity) ([4]; 50 mg/kg, no virus): 0/15
- toxicity in uninfected animals (in words) ([4]; administered alone to uninfected animals): virtually no toxicity
- deaths in uninfected animals ([4]; all doses together): 1 death in 60 animals
- mortality ([4]; 1.9 mg/kg, no virus): 0%
- mortality ([4]; 5.6 mg/kg, no virus): 0%
- mortality ([4]; 16.7 mg/kg, no virus): 7%
- mortality ([4]; 50 mg/kg, no virus): 0%
